The values below come from US20140120060A1, “TREATMENT OF RHEUMATOID ARTHRITIS AND ASTHMA USING PI3 KINASE INHIBITORS” (INFINITY PHARMACEUTICALS, INC., priority 2012, published 2014).

A value given as a limit tells only on which side of the number the result lay.

The experiment has as its system B cell. Briefly: B cell proliferation. The class given is cell-based.
Compound `Cc1cccc2cc(Cn3nc(I)c4c(N)ncnc43)n(-c3ccccc3O)c(=O)c12` [Compound 79] displayed an EC50 below 1000 nM.

`COc1ccccc1-n1c(Cn2nc(C#C[C@@H](C)O)c3c(N)ncnc32)cc2cccc(C)c2c1=O` [Compound 80] displayed an EC50 below 1000 nM.

`Cc1cccc2cc(Cn3nc(-c4cccc(O)c4)c4c(N)ncnc43)n(-c3ccccc3O)c(=O)c12` [Compound 81] displayed an EC50 below 100 nM.

Regarding `Cc1cccc2cc(Cn3nc(-c4cccc(O)c4)c4c(N)ncnc43)n(-c3ccccc3C(C)C)c(=O)c12` [Compound 82], the EC50 was below 100 nM.

Compound `Cc1cccc2cc(Cn3nc(C#C[C@@H](C)O)c4c(N)ncnc43)n(-c3ccccc3C(C)C)c(=O)c12` [Compound 83] registered an EC50 below 100 nM.

Compound `COc1ccccc1-n1c(Cn2nc(-c3cc(O)cc(F)c3)c3c(N)ncnc32)cc2cccc(C)c2c1=O` [Compound 84] returned an EC50 below 100 nM.

Consider `Cc1ccccc1-n1c(Cn2nc(C#C[C@H](C)O)c3c(N)ncnc32)cc2cccc(C)c2c1=O` [Compound 85], for which the EC50 is below 1000 nM.

In turn, `Cc1cccc2cc(Cn3nc(I)c4c(N)ncnc43)n(C3CC3)c(=O)c12` [Compound 86] showed an EC50 below 1000 nM.

`Cc1cccc2cc(Cn3nc(I)c4c(N)ncnc43)n(C3CCCCC3)c(=O)c12` [Compound 87] yielded an EC50 below 10000 nM.

On to `CCc1ccccc1-n1c(Cn2nc(-c3cccc(O)c3)c3c(N)ncnc32)cc2cccc(C)c2c1=O` [Compound 88], for which the EC50 was below 100 nM.

`CCc1ccccc1-n1c(Cn2nc(-c3cc(O)cc(F)c3)c3c(N)ncnc32)cc2cccc(C)c2c1=O` [Compound 89] registered an EC50 below 100 nM.

Consider `Cc1cccc2cc(Cn3nc(-c4cc(O)cc(F)c4)c4c(N)ncnc43)n(-c3ccccc3O)c(=O)c12` [Compound 90], for which the EC50 was below 100 nM.

As to `Cc1cccc2cc(Cn3nc(C#C[C@@H](C)O)c4c(N)ncnc43)n(-c3ccccc3O)c(=O)c12` [Compound 91], the EC50 is below 1000 nM.

`Cc1cccnc1-n1c(Cn2nc(-c3cc(O)cc(F)c3)c3c(N)ncnc32)cc2ccccc2c1=O` [Compound 93] showed an EC50 below 100 nM.

For `Cc1cccc2cc(Cn3nc(-c4cc(O)cc(F)c4)c4c(N)ncnc43)n(-c3ccccc3C(C)C)c(=O)c12` [Compound 95], the EC50 was below 100 nM.

For `Cc1cccc2cc(Cn3nc(-c4cccc(O)c4)c4c(N)ncnc43)n(-c3ccccc3Cl)c(=O)c12` [Compound 96], the EC50 is below 100 nM.

The compound `Cc1cccc2cc(Cn3nc(-c4cc(O)cc(F)c4)c4c(N)ncnc43)n(-c3ccccc3Cl)c(=O)c12` [Compound 97] showed an EC50 below 100 nM.

`Cc1cccc2cc(Cn3nc(C#C[C@@H](C)O)c4c(N)ncnc43)n(-c3ccccc3Cl)c(=O)c12` [Compound 98] gave an EC50 below 1000 nM.

`CCc1ccccc1-n1c(Cn2nc(C#C[C@@H](C)O)c3c(N)ncnc32)cc2cccc(C)c2c1=O` [Compound 99] had an EC50 below 100 nM.

With `Cc1cccc2cc(Cn3nc(C#C[C@@H](C)O)c4c(N)ncnc43)n(C3CC3)c(=O)c12` [Compound 100], the EC50 is below 1000 nM.

The compound `Cc1cccc2cc(Cn3nc(-c4cc(O)cc(F)c4)c4c(N)ncnc43)n(C3CC3)c(=O)c12` [Compound 101] returned a half-maximal effective concentration (EC50) below 100 nM.

For the compound `Cc1cccc2cc(Cn3nc(-c4cccc(O)c4)c4c(N)ncnc43)n(C3CC3)c(=O)c12` [Compound 102], the EC50 is below 100 nM.

In turn, `Cc1cccc2cc(Cn3nc(I)c4c(N)ncnc43)n(-c3ccccc3OCCN3CCOCC3)c(=O)c12` [Compound 103] gave an EC50 below 1000 nM.

The compound `Cc1cccc2cc(Cn3nc(I)c4c(N)ncnc43)n(C3CCC3)c(=O)c12` [Compound 105] displayed an EC50 below 1000 nM.

The compound `COc1cccc(-c2nn(Cc3cc4cccc(C)c4c(=O)n3-c3ccccc3C)c3ncnc(N)c23)c1` [Compound 106] yielded an EC50 below 1000 nM.

The compound `Cc1cccc2cc(Cn3nc(I)c4c(N)ncnc43)n(C)c(=O)c12` [Compound 107] returned an EC50 below 1000 nM.

In the case of `Cc1cccc2cc(Cn3nc(-c4cc(O)cc(F)c4)c4c(N)ncnc43)n(-c3ccccc3OCCN3CCOCC3)c(=O)c12` [Compound 108], the EC50 is below 100 nM.

`Cc1cccc2cc(Cn3nc(-c4cccc(O)c4)c4c(N)ncnc43)n(-c3ccccc3OCCN3CCOCC3)c(=O)c12` [Compound 109]: the EC50 was below 100 nM.

`Cc1cccc2cc(Cn3nc(-c4cc(O)cc(F)c4)c4c(N)ncnc43)n(C3CCCCC3)c(=O)c12` [Compound 110] returned an EC50 below 1000 nM.

For `Cc1cccc2cc(Cn3nc(-c4cccc(O)c4)c4c(N)ncnc43)n(C3CCCCC3)c(=O)c12` [Compound 111], the EC50 was below 1000 nM.

In turn, `Cc1cccc2cc(Cn3nc(C#C[C@@H](C)O)c4c(N)ncnc43)n(C3CCCCC3)c(=O)c12` [Compound 112] gave an EC50 below 10000 nM.

On to `Cc1cccc2cc(Cn3nc(-c4cccc(O)c4)c4c(N)ncnc43)n(C3CCC3)c(=O)c12` [Compound 114], for which the EC50 is below 1000 nM.

`Cc1cccc2cc(Cn3nc(-c4cc(O)cc(F)c4)c4c(N)ncnc43)n(C3CCC3)c(=O)c12` [Compound 115] displayed an EC50 below 100 nM.

Compound `Cc1ccccc1-n1c(Cn2nc(-c3cccc(O)c3)c3c(N)nccc32)cc2cccc(C)c2c1=O` [Compound 119] returned an EC50 below 1000 nM.

Compound `Cc1cccc2cc(Cn3nc(-c4ccc(Cl)c(O)c4)c4c(N)ncnc43)n(C(C)C)c(=O)c12` [Compound 123] yielded an EC50 below 100 nM.

Compound `Cc1cccc2cc(Cn3nc(-c4cccc(O)c4)c4c(N)ncnc43)n(C)c(=O)c12` [Compound 124] displayed an EC50 below 1000 nM.

Consider `Cc1cccc2cc(Cn3nc(-c4cc(O)cc(F)c4)c4c(N)ncnc43)n(C)c(=O)c12` [Compound 125], for which the EC50 is below 100 nM.

For the compound `CCn1c(Cn2nc(-c3cccc(O)c3)c3c(N)ncnc32)cc2cccc(C)c2c1=O` [Compound 126], the EC50 was below 100 nM.

Regarding `Cc1cccc2cc(Cn3nc(-c4cc(O)cc(F)c4)c4c(N)ncnc43)n(C3CCOCC3)c(=O)c12` [Compound 128], the EC50 is below 100 nM.

As to `CC(C)n1c(Cn2nc(-c3cccc(O)c3)c3c(N)ncnc32)cc2cccc(F)c2c1=O` [Compound 133], the EC50 was below 1000 nM.

On to `CC(C)n1c(Cn2nc(-c3cc(O)cc(F)c3)c3c(N)ncnc32)cc2cccc(F)c2c1=O` [Compound 134], for which the EC50 was below 100 nM.

The compound `CC(C)n1c(Cn2nc(-c3cccc(O)c3)c3c(N)ncnc32)cc2ccccc2c1=O` [Compound 135] returned an EC50 below 1000 nM.

Turning to `CC(C)n1c(Cn2nc(-c3cc(O)cc(F)c3)c3c(N)ncnc32)cc2ccccc2c1=O` [Compound 136], the concentration for a half-maximal effect (EC50) is below 100 nM.

For the compound `CC(C)n1c(Cn2nc(-c3cccc(O)c3)c3c(N)ncnc32)cc2cccc(Cl)c2c1=O` [Compound 137], the EC50 was below 100 nM.

For the compound `CC(C)n1c(Cn2nc(-c3cc(O)cc(F)c3)c3c(N)ncnc32)cc2cccc(Cl)c2c1=O` [Compound 138], the EC50 is below 100 nM.

`Nc1ncnc2c1c(I)nn2Cc1cc2cccc(Cl)c2c(=O)n1C1CC1` [Compound 139] had a 50% effective concentration (EC50) below 100 nM.

For the compound `Nc1ncnc2c1c(-c1cccc(O)c1)nn2Cc1cc2cccc(Cl)c2c(=O)n1C1CC1` [Compound 141], the EC50 was below 100 nM.

Consider `Nc1ncnc2c1c(-c1cc(O)cc(F)c1)nn2Cc1cc2cccc(Cl)c2c(=O)n1C1CC1` [Compound 142], for which the EC50 is below 100 nM.

`Nc1ncnc2c1c(-c1cc(O)cc(F)c1)nn2Cc1cc2cccc(F)c2c(=O)n1-c1ccccc1F` [Compound 144]: the EC50 was below 100 nM.

Regarding `Cc1ccccc1-n1c(Cn2nc(-c3ccc4nc(N)sc4c3)c3c(N)ncnc32)cc2cccc(C)c2c1=O` [Compound 145], the EC50 is below 1000 nM.

Turning to `Cc1cccc2cc(Cn3nc(-c4cccc(O)c4)c4c(N)ncnc43)n(-c3ccccc3)c(=O)c12` [Compound 146], the EC50 is below 100 nM.

As to `Cc1cccc2cc(Cn3nc(-c4cc(O)cc(F)c4)c4c(N)ncnc43)n(-c3ccccc3)c(=O)c12` [Compound 147], the EC50 was below 100 nM.

`CNC(=O)Nc1nc2ccc(-c3nn(Cc4cc5cccc(C)c5c(=O)n4-c4ccccc4C)c4ncnc(N)c34)cc2s1` [Compound 148] yielded an EC50 below 100 nM.

Regarding `Cc1ccccc1-n1c(Cn2nc(-c3ccc4nc(N)ccc4c3)c3c(N)ncnc32)cc2cccc(C)c2c1=O` [Compound 149], the EC50 is below 100 nM.

`Cc1ccccc1-n1c(Cn2nc(-c3ccc4nc(N)ncc4c3)c3c(N)ncnc32)cc2cccc(C)c2c1=O` [Compound 150] showed an EC50 below 100 nM.

With `Cc1ccccc1-n1c(Cn2nc(-c3ccc4oc(N)nc4c3)c3c(N)ncnc32)cc2cccc(C)c2c1=O` [Compound 151], the EC50 was below 100 nM.

As for `Cc1ccccc1-n1c(Cn2nc(-c3ccc4ncnc(N)c4c3)c3c(N)ncnc32)cc2cccc(C)c2c1=O` [Compound 152], the EC50 was below 1000 nM.

Compound `CC(=O)Nc1nc2ccc(-c3nn(Cc4cc5cccc(C)c5c(=O)n4C)c4ncnc(N)c34)cc2s1` [Compound 153] displayed an EC50 below 100 nM.

`CC(=O)Nc1nc2ccc(-c3nn(Cc4cc5cccc(C)c5c(=O)n4C(C)C)c4ncnc(N)c34)cc2s1` [Compound 154] registered an EC50 below 100 nM.

`CC(=O)Nc1nc2ccc(-c3nn(Cc4cc5cccc(C)c5c(=O)n4C4CC4)c4ncnc(N)c34)cc2s1` [Compound 155] registered an EC50 below 100 nM.

`CC(=O)Nc1nc2ccc(-c3nn(Cc4cc5cccc(Cl)c5c(=O)n4C4CC4)c4ncnc(N)c34)cc2s1` [Compound 156] gave an EC50 below 100 nM.

In turn, `CC(=O)Nc1nc2ccc(-c3nn(Cc4cc5cccc(Cl)c5c(=O)n4C(C)C)c4ncnc(N)c34)cc2s1` [Compound 157] displayed an EC50 below 100 nM.

Consider `CC(=O)Nc1nc2ccc(-c3nn(Cc4cc5cccc(F)c5c(=O)n4C(C)C)c4ncnc(N)c34)cc2s1` [Compound 158], for which the EC50 is below 100 nM.

As for `CC(=O)Nc1nc2ccc(-c3nn(Cc4cc5cccc(C)c5c(=O)n4C4CCC4)c4ncnc(N)c34)cc2s1` [Compound 159], the concentration for a half-maximal effect (EC50) is below 100 nM.

Compound `Cc1ccccc1-n1c(Cn2nc(-c3cn[nH]c3)c3c(N)ncnc32)cc2cccc(C)c2c1=O` [Compound 160] had an EC50 below 100 nM.

Compound `Cc1cccc2cc(Cn3nc(-c4cn[nH]c4)c4c(N)ncnc43)n(-c3ccccc3F)c(=O)c12` [Compound 161] yielded a concentration giving a half-maximal response (EC50) below 1000 nM.

Turning to `Cc1ccccc1-n1c(Cn2nc(-c3cnn(CCO)c3)c3c(N)ncnc32)cc2cccc(C)c2c1=O` [Compound 163], the EC50 is below 1000 nM.

What is called EC50 is the midpoint of the concentration-response curve.
